Eleven molecules from patent publication US20200361895A1, “NOVEL SULFONAMIDE CARBOXAMIDE COMPOUNDS” (Inflazome Limited, priority 2017, published 2020) can be followed below.

For experiment [1], the target named is T1, NLRP3 (Homo sapiens, UniProt Q96P20). Nature of the experiment: THP-1 cells pyroptosis assay (LPS + nigericin, resazurin readout; THP IC50). The format is cell-based. More on the design: Seed THP-1 cells (25,000 cells/well) containing 1.0 μg/ml LPS in 40 μl of RPMI medium; host or cells: THP-1 cells. The method in brief: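 IC50 from 4-parameter fit of resazurin fluorescence (100 μM, 1-2 hrs), reflecting surviving cells after pyroptosis. LPS-primed (1 μg/ml) THP-1 cells in FBS-free RPMI got compound for 3 hrs at 37° C (top 10 μM, half-log, 8 points), then nigericin 5 μM for 1 hr.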

The target in experiment [2] is T1, NLRP3. Nature of the experiment: Human whole blood IL1β release assay (LPS + nigericin, AlphaLisa IL-1β; HWB IC50). In kind it is cell-based. More on the design: Human whole blood in Li-heparin tubes was obtained from healthy donors from a volunteer donor panel; from tissue; host or cells: human whole blood from healthy donors. As to conditions: IL-1β release. Summed up:
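IL-1β in plasma supernatant quantified by AlphaLisa after nigericin (10 μM final, 1 h, 37 °C) triggering of human whole blood that had been preincubated 3 h with LPS (1 μg/ml) plus compound (half-log, 8 points, from 10 μM). IC50 by variable-slope four-parameter regression.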
A general note: In Alpha technology, singlet oxygen from a donor bead excites a nearby acceptor bead.

Where a name gives a salt, the structure may show the parent alone.

T1 sequence (Q96P20 whole entry): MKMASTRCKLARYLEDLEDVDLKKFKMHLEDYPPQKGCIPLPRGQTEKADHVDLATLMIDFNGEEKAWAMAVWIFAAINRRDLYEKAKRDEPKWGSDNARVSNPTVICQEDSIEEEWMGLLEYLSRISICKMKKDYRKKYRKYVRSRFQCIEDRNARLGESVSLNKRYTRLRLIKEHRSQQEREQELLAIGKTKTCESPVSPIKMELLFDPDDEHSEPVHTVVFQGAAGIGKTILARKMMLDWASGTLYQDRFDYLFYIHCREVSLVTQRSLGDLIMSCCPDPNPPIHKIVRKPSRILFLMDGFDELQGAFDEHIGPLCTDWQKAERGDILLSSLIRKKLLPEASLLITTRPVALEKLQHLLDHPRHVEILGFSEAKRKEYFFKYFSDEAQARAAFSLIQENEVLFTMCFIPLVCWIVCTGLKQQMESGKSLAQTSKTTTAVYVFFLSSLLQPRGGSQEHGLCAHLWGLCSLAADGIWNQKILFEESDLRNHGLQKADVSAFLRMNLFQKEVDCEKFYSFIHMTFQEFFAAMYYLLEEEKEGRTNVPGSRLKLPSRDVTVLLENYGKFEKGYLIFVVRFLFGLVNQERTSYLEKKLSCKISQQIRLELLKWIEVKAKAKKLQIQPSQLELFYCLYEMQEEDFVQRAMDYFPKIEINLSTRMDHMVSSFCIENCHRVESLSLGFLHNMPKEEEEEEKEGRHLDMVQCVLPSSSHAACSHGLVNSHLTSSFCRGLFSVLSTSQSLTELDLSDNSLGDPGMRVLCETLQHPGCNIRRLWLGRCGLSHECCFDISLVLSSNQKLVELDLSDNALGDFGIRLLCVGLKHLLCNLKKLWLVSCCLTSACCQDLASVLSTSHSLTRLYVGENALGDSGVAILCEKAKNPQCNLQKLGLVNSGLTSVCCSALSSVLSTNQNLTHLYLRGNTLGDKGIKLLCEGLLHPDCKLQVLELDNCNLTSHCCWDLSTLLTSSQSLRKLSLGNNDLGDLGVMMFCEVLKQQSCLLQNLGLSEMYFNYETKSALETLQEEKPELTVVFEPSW

Take `N#Cc1cc(-c2ccc3c(c2NC(=O)NS(=O)(=O)c2ccn(C4CC4)n2)CCC3)ccn1` [Example 222, N-((5-(2-Cyanopyridin-4-yl)-2,3-dihydro-1H-inden-4-yl)carbamoyl)-1-cyclopropyl-1H-pyrazole-3-sulfonamide, sodium salt]: the IC50 at NLRP3 [1] and at NLRP3 [2] was ≤ 500 nM throughout.

As to `CC(C)n1ccc(S(=O)(=O)NC(=O)Nc2c(-c3ccnc(C#N)c3)cc(Cl)c3c2CCC3)n1` [Example 225, N-((7-Chloro-5-(2-cyanopyridin-4-yl)-2,3-dihydro-1H-inden-4-yl)carbamoyl)-1-isopropyl-1H-pyrazole-3-sulfonamide, sodium salt], the results for the IC50 at NLRP3 [1] and at NLRP3 [2] were ≤ 500 nM and ≤ 5000 nM, respectively.

Consider `COc1cc(-c2cc(Cl)c3c(c2NC(=O)NS(=O)(=O)c2ccn(C(C)C)n2)CCC3)ccn1` [Example 226, N-((7-Chloro-5-(2-methoxypyridin-4-yl)2,3-dihydro-1H-inden-4-yl)carbamoyl)-1-isopropyl-1H-pyrazole-3-sulfonamide, sodium salt], for which the IC50 on NLRP3 [1] is ≤ 500 nM; on NLRP3 [2] it was ≤ 1000 nM.

As to `N#Cc1cc(-c2ccc3c(c2NC(=O)NS(=O)(=O)c2ccn(C4CCC4)n2)CCC3)ccn1` [Example 227, N-((5-(2-Cyanopyridin-4-yl)-2,3-dihydro-1H-inden-4-yl)carbamoyl)-1-cyclobutyl-1H-pyrazole-3-sulfonamide], the 50% inhibitory concentration (IC50) at NLRP3 [1] and at NLRP3 [2] was ≤ 500 nM each time.

Regarding `CC(C)n1cnc(S(=O)(=O)NC(=O)Nc2c(-c3ccnc(C#N)c3)ccc3c2CCC3)n1` [Example 228, N-((5-(2-Cyanopyridin-4-yl)-2,3-dihydro-1H-inden-4-yl)carbamoyl)-1-isopropyl-1H-1,2,4-triazole-3-sulfonamide, sodium salt], the IC50 at NLRP3 [1] and at NLRP3 [2] was ≤ 500 nM in each case.

Consider `CC(C)n1cnc(S(=O)(=O)NC(=O)Nc2c(-c3ccnc(C#N)c3)ccc3c2CCC3)c1` [Example 229, N-((5-(2-Cyanopyridin-4-yl)-2,3-dihydro-1H-inden-4-yl)carbamoyl)-1-isopropyl-1H-imidazole-4-sulfonamide], for which the IC50 on NLRP3 [1] and on NLRP3 [2] was ≤ 500 nM in each case.

For `N#Cc1cc(-c2ccc3c(c2NC(=O)NS(=O)(=O)c2cnn(CC(F)F)c2)CCC3)ccn1` [Example 231, N-((5-(2-Cyanopyridin-4-yl)-2,3-dihydro-1H-inden-4-yl)carbamoyl)-1-(2,2-difluoroethyl)-1H-pyrazole-4-sulfonamide, sodium salt], the IC50 at NLRP3 [1] and on NLRP3 [2] was ≤ 500 nM each time.

On to `COc1cc(-c2ccc3c(c2NC(=O)NS(=O)(=O)c2ncn(C(C)C)n2)CCC3)ccn1` [Example 232, 1-Isopropyl-N-((5-(2-methoxypyridin-4-yl)-2,3-dihydro-1H-inden-4-yl)carbamoyl)-1H-1,2,4-triazole-3-sulfonamide, sodium salt], for which the values for the IC50 on NLRP3 [1] and on NLRP3 [2] were ≤ 500 nM and ≤ 1000 nM, respectively.

As for `COc1cc(-c2ccc3c(c2NC(=O)NS(=O)(=O)c2cn(C(C)C)cn2)CCC3)ccn1` [Example 233, 1-Isopropyl-N-((5-(2-methoxypyridin-4-yl)-2,3-dihydro-1H-inden-4-yl)carbamoyl)-1H-imidazole-4-sulfonamide], the IC50 is ≤ 500 nM on NLRP3 [1] and ≤ 1000 nM at NLRP3 [2].

Turning to `COc1cc(-c2ccc3c(c2NC(=O)NS(=O)(=O)c2cn(C(C)C)nn2)CCC3)ccn1` [Example 234, 1-Isopropyl-N-((5-(2-methoxypyridin-4-yl)-2,3-dihydro-1H-inden-4-yl)carbamoyl)-1H-1,2,3-triazole-4-sulfonamide, sodium salt], the IC50 at NLRP3 [1] was ≤ 500 nM; on NLRP3 [2], ≤ 1000 nM.

On to `COc1cc(-c2ccc3c(c2NC(=O)NS(=O)(=O)c2cnn(CC(F)F)c2)CCC3)ccn1` [Example 235, 1-(2,2-Difluoroethyl)-N-((5-(2-methoxypyridin-4-yl)-2,3-dihydro-1H-inden-4-yl)carbamoyl)-1H-pyrazole-4-sulfonamide, sodium salt], for which the IC50 at NLRP3 [1] and at NLRP3 [2] was ≤ 500 nM in each case.

Broadly, the IC50 is the concentration that gives 50% inhibition.
